{
  "source": "ChEMBL document CHEMBL4261501",
  "about": "“Design, synthesis and biological evaluation of imidazopyridine-propenone conjugates as potent tubulin inhibitors” (Medchemcomm, 2017)",
  "key": {"A549 [1]": {"system": "A549", "assay": "Disruption of microtubule organization in human A549 cells at 0.5 uM after 48 hrs by fluorescence microscopic analysis", "assay_type": "cell-based"}, "A549 [2]": {"system": "A549", "assay": "Induction of apoptosis in human A549 cells assessed as early apoptotic cells at 0.5 uM after 48 hrs by Annexin V-FITC/propidium iodide staining based flow cytometry (reference value: 1.03%)", "assay_type": "functional"}, "Tubulin": {"molecular_target": "Tubulin", "assay": "Inhibition of tubulin polymerization (unknown origin) after 1 hr by fluorescence assay", "assay_type": "protein-complex assay, Homo sapiens"}, "A549 [3]": {"system": "A549", "assay": "Cell cycle arrest in human A549 cells assessed as accumulation at G2/M phase at 0.5 uM after 48 hrs by propidium iodide staining based flow cytometry (reference value: 7.4%)", "assay_type": "functional"}, "A549 [4]": {"system": "A549", "assay": "Induction of apoptosis in human A549 cells assessed as live cells at 0.5 uM after 48 hrs by Annexin V-FITC/propidium iodide staining based flow cytometry (reference value: 93.97%)", "assay_type": "functional"}, "A549 [5]": {"system": "A549", "assay": "Cell cycle arrest in human A549 cells assessed as accumulation at sub-G1 phase at 1 uM after 48 hrs by propidium iodide staining based flow cytometry (reference value: 1.11%)", "assay_type": "functional"}, "A549 [6]": {"system": "A549", "assay": "Induction of apoptosis in human A549 cells assessed as necrotic cells at 0.5 uM after 48 hrs by Annexin V-FITC/propidium iodide staining based flow cytometry (reference value: 1.17%)", "assay_type": "functional"}, "A549 [7]": {"system": "A549", "assay": "cells", "conditions": "Homo sapiens, A549, 48 h", "description": "Cytotoxicity against human A549 cells after 48 hrs by MTT assay"}, "A549 [8]": {"system": "A549", "assay": "Cell cycle arrest in human A549 cells assessed as accumulation at S phase at 0.5 uM after 48 hrs by propidium iodide staining based flow cytometry (reference value: 1.92%)", "assay_type": "functional"}, "A549 [9]": {"system": "A549", "assay": "Cell cycle arrest in human A549 cells assessed as accumulation at sub-G1 phase at 0.5 uM after 48 hrs by propidium iodide staining based flow cytometry (reference value: 1.11%)", "assay_type": "functional"}, "A549 [10]": {"system": "A549", "assay": "Induction of apoptosis in human A549 cells assessed as nuclear fragmentation at 0.5 uM after 48 hrs by Hoechst 33258 staining based fluorescence microscopic analysis", "assay_type": "functional, cell-based"}, "A549 [11]": {"system": "A549", "assay": "Induction of apoptosis in human A549 cells assessed as late apoptotic cells at 1 uM after 48 hrs by Annexin V-FITC/propidium iodide staining based flow cytometry (reference value: 3.83%)", "assay_type": "functional"}, "A549 [12]": {"system": "A549", "assay": "Cell cycle arrest in human A549 cells assessed as accumulation at G0/G1 phase at 1 uM after 48 hrs by propidium iodide staining based flow cytometry (reference value: 90.52%)", "assay_type": "functional"}, "HeLa": {"system": "HeLa", "assay": "cells", "conditions": "Homo sapiens, 48 h", "description": "Cytotoxicity against human HeLa cells after 48 hrs by MTT assay"}, "A549 [13]": {"system": "A549", "assay": "Induction of mitochondrial membrane potential loss in human A549 cells assessed as collapse of the mitochondrial membrane potential at 0.5 uM after 48 hrs by JC1 staining based flow cytomtery (reference value: 3.5%)", "assay_type": "functional"}, "A549 [14]": {"system": "A549", "assay": "Induction of apoptosis in human A549 cells assessed as necrotic cells at 1 uM after 48 hrs by Annexin V-FITC/propidium iodide staining based flow cytometry (reference value: 1.17%)", "assay_type": "functional"}, "A549 [15]": {"system": "A549", "assay": "Induction of apoptosis in human A549 cells assessed as formation of apoptotic bodies at 0.5 uM after 48 hrs by Hoechst 33258 staining based fluorescence microscopic analysis", "assay_type": "functional, cell-based"}, "A549 [16]": {"system": "A549", "assay": "Induction of apoptosis in human A549 cells assessed as early apoptotic cells at 1 uM after 48 hrs by Annexin V-FITC/propidium iodide staining based flow cytometry (reference value: 1.03%)", "assay_type": "functional"}, "DU-145": {"system": "DU-145", "assay": "Cytotoxicity against human DU145 cells after 48 hrs by MTT assay", "assay_type": "functional, cell-based", "conditions": "DU-145, 48 h"}, "Tubulin (Homo sapiens)": {"molecular_target": "Tubulin (Homo sapiens) (UniProt P68371+Q9H4B7+P0DPH7+P68366+Q13509+Q71U36+P04350+Q3ZCM7+P07437+P68363+Q9BQE3+Q6PEY2+Q13885+Q9BVA1+Q9BUF5)", "assay": "Inhibition of tubulin polymerization (unknown origin) at 3 uM after 1 hr by fluorescence assay relative to control", "assay_type": "protein-complex assay"}, "A549 [17]": {"system": "A549", "assay": "Induction of apoptosis in human A549 cells assessed as live cells at 1 uM after 48 hrs by Annexin V-FITC/propidium iodide staining based flow cytometry (reference value: 93.97%)", "assay_type": "functional"}, "A549 [18]": {"system": "A549", "assay": "Induction of mitochondrial membrane potential loss in human A549 cells assessed as collapse of the mitochondrial membrane potential at 1 uM after 48 hrs by JC1 staining based flow cytomtery (reference value: 3.5%)", "assay_type": "functional"}, "A549 [19]": {"system": "A549", "assay": "Cell cycle arrest in human A549 cells assessed as accumulation at G2/M phase at 1 uM after 48 hrs by propidium iodide staining based flow cytometry (reference value: 7.4%)", "assay_type": "functional"}, "MCF7": {"system": "MCF7", "assay": "cells", "conditions": "Homo sapiens, MCF7, 48 h", "description": "Cytotoxicity against human MCF7 cells after 48 hrs by MTT assay"}, "A549 [20]": {"system": "A549", "assay": "Induction of mitochondrial membrane potential loss in human A549 cells assessed as intact mitochondrial membrane at 0.5 uM after 48 hrs by JC1 staining based flow cytomtery (reference value: 96.3%)", "assay_type": "functional"}, "A549 [21]": {"system": "A549", "assay": "Induction of apoptosis in human A549 cells assessed as late apoptotic cells at 0.5 uM after 48 hrs by Annexin V-FITC/propidium iodide staining based flow cytometry (reference value: 3.83%)", "assay_type": "functional"}, "A549 [22]": {"system": "A549", "assay": "Induction of apoptosis in human A549 cells assessed as cytoplasmic condensation at 0.5 uM after 48 hrs by Hoechst 33258 staining based fluorescence microscopic analysis", "assay_type": "functional, cell-based"}, "A549 [23]": {"system": "A549", "assay": "Cell cycle arrest in human A549 cells assessed as accumulation at S phase at 1 uM after 48 hrs by propidium iodide staining based flow cytometry (reference value: 1.92%)", "assay_type": "functional"}, "A549 [24]": {"system": "A549", "assay": "Induction of mitochondrial membrane potential loss in human A549 cells assessed as intact mitochondrial membrane at 1 uM after 48 hrs by JC1 staining based flow cytomtery (reference value: 96.3%)", "assay_type": "functional"}, "A549 [25]": {"system": "A549", "assay": "Cell cycle arrest in human A549 cells assessed as accumulation at G0/G1 phase at 0.5 uM after 48 hrs by propidium iodide staining based flow cytometry (reference value: 90.52%)", "assay_type": "functional"}},
  "note": "Calls of active or inactive are those of the source. The rule behind the calls is not given here.",
  "data": [
    {"smiles": "O=C(/C=C\\Nc1ccc(Br)cc1)c1c(-c2ccc(Cl)cc2)nc2ccccn12", "values": [
      {"measurement": "Activity", "setting": "A549 [1]", "value": "Active"},
      {"measurement": "Activity", "setting": "A549 [2]", "value": "21.9 - 21.91%"},
      {"measurement": "IC50", "setting": "Tubulin", "value": 1930, "unit": "nM"},
      {"measurement": "Activity", "setting": "A549 [3]", "value": 14.4, "unit": "%"},
      {"measurement": "Activity", "setting": "A549 [4]", "value": "66.5 - 66.51%"},
      {"measurement": "Activity", "setting": "A549 [5]", "value": 0.86, "unit": "%"},
      {"measurement": "Activity", "setting": "A549 [6]", "value": "1.6 - 1.64%"},
      {"measurement": "IC50", "setting": "A549 [7]", "value": 933, "unit": "nM"},
      {"measurement": "Activity", "setting": "A549 [8]", "value": 2.68, "unit": "%"},
      {"measurement": "Activity", "setting": "A549 [9]", "value": 0.66, "unit": "%"},
      {"measurement": "Activity", "setting": "A549 [10]", "value": "Active"},
      {"measurement": "Activity", "setting": "A549 [11]", "value": "18.06 - 18.1%"},
      {"measurement": "Activity", "setting": "A549 [12]", "value": 65.94, "unit": "%"},
      {"measurement": "IC50", "setting": "HeLa", "value": 1480, "unit": "nM"},
      {"measurement": "Activity", "setting": "A549 [13]", "value": 20.3, "unit": "%"},
      {"measurement": "Activity", "setting": "A549 [14]", "value": "1.38 - 1.4%"},
      {"measurement": "Activity", "setting": "A549 [15]", "value": "Active"},
      {"measurement": "Activity", "setting": "A549 [16]", "value": "33.97 - 34%"},
      {"measurement": "IC50", "setting": "DU-145", "value": 1500, "unit": "nM"},
      {"measurement": "inhibition", "setting": "Tubulin (Homo sapiens)", "value": 66.5, "unit": "%"},
      {"measurement": "Activity", "setting": "A549 [17]", "value": "46.59 - 46.6%"},
      {"measurement": "Activity", "setting": "A549 [18]", "value": 30.1, "unit": "%"},
      {"measurement": "Activity", "setting": "A549 [19]", "value": 29.84, "unit": "%"},
      {"measurement": "IC50", "setting": "MCF7", "value": 2690, "unit": "nM"},
      {"measurement": "Activity", "setting": "A549 [20]", "value": 75.9, "unit": "%"},
      {"measurement": "Activity", "setting": "A549 [21]", "value": "9.9 - 9.94%"},
      {"measurement": "Activity", "setting": "A549 [22]", "value": "Active"},
      {"measurement": "Activity", "setting": "A549 [23]", "value": 5.62, "unit": "%"},
      {"measurement": "Activity", "setting": "A549 [24]", "value": 63.9, "unit": "%"},
      {"measurement": "Activity", "setting": "A549 [25]", "value": 83.28, "unit": "%"}
    ]}
  ]
}
